# Experimental data reported in US4636513A, “Isoxazole derivatives and medicaments containing these compounds” (Hoechst Aktiengesellschaft, priority 1984, dated 1987).
# Read-outs that look alike come from different tables or passages of the source.
# What was measured:
# mice = assay: Acetic acid extension test on mice (analgesic action); settings: Mus musculus, po; for responders at 158 mg/kg: read-out: Animals which showed analgesic effect in % after an oral dose of 158 mg/kg; for ED50: read-out: Analgesic action ED50, acetic acid extension test (Mouse)
# Procedure: (§1) (a) Acetic acid extension test on mice in accordance with the method of R. Koster et al., Fed. Prod.
# (§2) Female mice of a N.M.R.I. strain with a body weight (BW) of between 21 and 28 g were used as the experimental animals. Groups of in each case 12 animals received 0.1 ml/10 g BW of a 0.6% strength acetic acid solution, injected intraperitoneally. The test substances were administered 30 minutes beforehand. Immediately after the acetic acid injection, the animals were placed individually and the typical extension movements occurring within 15 minutes were counted, these consisting of brief flexing of the abdominal muscles with withdrawal of the sides and subsequent extension of the rear of the body and of at least one rear extremity.
# (§3) The test substances were administered orally in a volume of 10 ml/kg BW in 1% strength aqueous carboxymethylcellulose (CMC) suspension.
# [1] = Gastrointestinal ulcerogenicity; format: in vivo, rat (male Sprague-Dawley); settings: rat, in vivo, po
# Procedure: (§4) In this test on male Sprague-Dawley rats with a body weight of between 200 and 300 g, an increased sensitivity of the gastric mucosa toward the ulcerogenic action of non-steroid antiflammatories was induced by hunger stress (withdrawal of food for a total of 72 hours).
# (§5) 48 hours before administration of the test substances, the food was withdrawn from the animals until the end of the experiment, the animals having free access to drinking water.
# (§6) 24 hours after oral administration of the product, the animals were sacrificed and the stomachs were removed, cut along the lesser curvature, cleaned under running water and inspected for lesions in the mucous membrane. All the macroscopically visible lesions of the mucosa in the glandular atomach were regarded as ulcers. The proportion of animals with ulcers per dose was determined.
# (§7) The test substances were administered as a solution in CMC suspension in a volume of 1 ml/100 g of body weight. The UD50 (dose at which 50% of the animals had ulcers) was determined with the aid of Probit analysis and the confidence range was determined by the method of Fieller.
# rats [2] = assay: Modified Randall-Selitto hyperalgesia test on rats (analgesic action); settings: Rattus norvegicus, po, 2 h, read-out: Analgesic action ED50, Randall-Selitto test (Rat)
# Procedure: (§8) (b) Modified Randall-Selitto hyperalgesia test on rats in accordance with the method of Atkinson et al., J. Pharm. Pharmac.
# (§9) Male Sprague-Dawley rats with a body weight of 200 to 300 g were used as the experimental animals. The experimental animals were given a subplantar injection of 0.2 ml of brewer's yeast suspension (40% of yeast in 0.9% strength NaCl solution) into the left hind paw under mild ether anaesthesia. After 5 hours, the gait of the animals over a metal grating was evaluated according to the following scale:
# (§10) The evaluation was effected by determining the percentage of animals evaluated with stage 1 or 0.5, two animals given 0.5 being regarded as showing an analgesic effect.
# (§11) The test substances were administered orally, to animals which had been fasted for 15 hours, in CMC suspension in a volume of 10 ml/kg BW two hours before the evaluation of the animals. In order to exclude subjective influences, the evaluation was performed by two people independently of one another and without knowledge of the pretreatment of the animals (n=10/dose). The ED50 values were determined with the aid of linear regression in accordance with the method of Fieller and Sidak.
# rats [3] = assay: Antipyretic action, yeast fever test on rats; format: in vivo, rat (female Sprague-Dawley); settings: for Reduction in body temperature at 60 min / Reduction in body temperature at 120 min / Reduction in body temperature at 180 min / Reduction in body temperature at 240 min: rat, orally
# Procedure: The investigations were carried out on female Sprague-Dawley rats with a body weight of 150 g and fed on drinking water ad libitum and a standard diet. […] The body temperature was measured rectally by means of second thermometers at room temperature (24° C.). The number of animals was n=6 per dose. The average reduction in body temperature in comparison with the simultaneous value of the untreated control animals was recorded.
# isolated pig ureter = assay: Inhibition of potassium chloride-induced spasms on the isolated pig ureter
# Text: In contrast, the compounds of the formula I exert a significant inhibiting action in this experimental design.
# [4] = biliary, gastrointestinal and urogenital tract; cited from earlier work
# [5] = Modified Randall-Selitto hyperalgesia test on rats (analgesic action); settings: rat, in vivo, po
# Procedure: as §8, §9, §10, §11
# [6] = Acetic acid extension test on mice (analgesic action); settings: mouse, in vivo, po
# Procedure: as §1, §2, §3
# in vivo = assay: in vivo; parameters: species or system rat (male and female Wistar); settings: po, rat, administered orally, read-out: Toxicity LD50
# Procedure: The animals were used in the experiment after being fasted for about 18 hours and only received food again five hours after administration of the product. After a three-week observation period, they were sacrificed with chloroform and autopsied. The organs were assessed macroscopically. The test compounds were dissolved in 1% strength CMC suspension and administered to the rats through a stomach tube in a volume of 5 ml/kg BW.
# [7] = test system: prostaglandin synthetases; settings: cited from earlier work
# gastric mucosa = assay: Gastrointestinal ulcerogenicity; format: in vivo, rat (male Sprague-Dawley); settings: doses of up to 400 mg/kg, rat, oral
# Procedure: as §4, §5, §6, §7
compound,measurement,setting,value
"CCN(CC)C(=O)c1cnoc1C [5-Methyl-4-isoxazolecarboxylic acid N,N--diethylamide, reference compound]",responders at 158 mg/kg,mice,25%
"Cc1oncc1C(=O)N1CCCC1 [Example 3, N-(5-Methyl-4-isoxazolylcarbonyl)-pyrrolidine]",responders at 158 mg/kg,mice,83%
"CC(=O)Nc1ccc(O)cc1 [Paracetamol, reference compound]",TD50 at 24 h,[1],> 400 mg/kg
same,ED50,rats [2],334 mg/kg
same,ED50,mice,155 mg/kg
same,responders at 158 mg/kg,mice,50%
same,Reduction in body temperature at 60 min,rats [3]; 100 mg/kg,1.3 °C
same,Reduction in body temperature at 120 min,rats [3]; 100 mg/kg,1.1 °C
same,Reduction in body temperature at 180 min,rats [3]; 100 mg/kg,0.4 °C
same,Reduction in body temperature at 240 min,rats [3]; 100 mg/kg,0 °C
same,Inhibiting effect on spasms,isolated pig ureter; potassium chloride,no inhibiting effect on spasms
same,Suitability for treating pain of spastic origin,[4],unsuitable for treating pain of spastic origin
"Cc1oncc1C(=O)N1CCSCC1 [Example 5, N-(5-Methyl-4-isoxazolylcarbonyl)-thiomorpholine]",responders at 158 mg/kg,mice,59%
"CC(=O)Oc1ccccc1C(=O)O [Acetylsalicylic acid, reference compound]",TD50 at 24 h,"[1]; administered orally, fasted, 24 h after administration, read-out: Ulcerogenicity UD50",31 mg/kg
same,selectivity ratio,[5],8.2
same,ED50,rats [2],182 mg/kg
same,ED50,mice,138 mg/kg
same,responders at 158 mg/kg,mice,48%
same,selectivity ratio,[6],10.9
same,LD50 at 504 h,in vivo,1500 mg/kg
same,Inhibition of peripheral prostaglandin biosynthesis,[7],inhibitor of peripheral prostaglandin biosynthesis
"Cc1oncc1C(=O)N1CCOCC1 [Example 10, N-(5-Methyl-4-isoxazolylcarbonyl)-morpholine]",responders at 158 mg/kg,mice,42%
"Cc1oncc1C(=O)N1CCC(O)CC1 [Example 6, 4-Hydroxy-1-(5-methyl-4-isoxazolylcarbonyl)-piperidine]",responders at 158 mg/kg,mice,50%
"Cc1noc(C)c1C(=O)N1CCCCC1 [3,5-Dimethyl-4-isoxazole-carboxylic acid piperidide, reference compound]",responders at 158 mg/kg,mice,25%
"Cc1oncc1C(=O)N1CCC(C)CC1 [Example 4, 4-Methyl-1-(5-methyl-4-isoxazolylcarbonyl)-piperidine]",responders at 158 mg/kg,mice,67%
"CCCc1oncc1C(=O)N1CCCCC1 [Example 9, N-(5-Propyl-4-isoxazolylcarbonyl)-piperidine]",responders at 158 mg/kg,mice,67%
"O=C(c1cnoc1C(F)(F)F)N1CCCCC1 [Example 8, N-(5-Trifluoromethyl-4-isoxazolylcarbonyl)-piperidine]",responders at 158 mg/kg,mice,75%
"CCc1oncc1C(=O)N1CCCCC1 [Example 2, N-(5-Ethyl-4-isoxazolylcarbonyl)-piperidine]",responders at 158 mg/kg,mice,83%
"O=C(c1cnoc1)N1CCCCC1 [Example 7, N-(4-Isoxazolylcarbonyl)-piperidine]",responders at 158 mg/kg,mice,50%
"Cc1oncc1C(=O)N1CCCCC1 [Example 1, N-(5-Methyl-4-isoxazolylcarbonyl)-piperidine]",Lesions of the mucous membrane,gastric mucosa,no lesions of the mucous membrane were detected
same,TD50 at 24 h,[1],> 400 mg/kg
same,ED50,rats [2],85 mg/kg
same,ED50,mice,45 mg/kg
same,responders at 158 mg/kg,mice,83%
same,Reduction in fever in comparison with Paracetamol,rats [3]; 50 mg/kg oral versus Paracetamol 100 mg/kg oral,both more powerful and clearly lasts longer than that of the comparison product Paracetamol
same,Reduction in body temperature at 60 min,rats [3]; 50 mg/kg,1.3 °C
same,Reduction in body temperature at 120 min,rats [3]; 50 mg/kg,1.6 °C
same,Reduction in body temperature at 180 min,rats [3]; 50 mg/kg,1.3 °C
same,Reduction in body temperature at 240 min,rats [3]; 50 mg/kg,0.8 °C
same,Reduction in body temperature at 60 min,rats [3]; 100 mg/kg,2.0 °C
same,Reduction in body temperature at 120 min,rats [3]; 100 mg/kg,2.0 °C
same,Reduction in body temperature at 180 min,rats [3]; 100 mg/kg,1.5 °C
same,Reduction in body temperature at 240 min,rats [3]; 100 mg/kg,1.1 °C
same,IC50,"isolated pig ureter; Sus scrofa, potassium chloride-induced spasms, read-out: ED50 (inhibition of spasms), concentration",410 µg/mL
